Measured values from ChEMBL document CHEMBL1135808, “A new type of mixed anhydride and its applications to the synthesis of 7-substituted 8-chloro-5,5-dioxoimidazo[1,2-b][1,4,2]benzodithiazines with in vitro antitumor activity” (2002).

Legend:
Tumor Cell line = assay: In vitro inhibition of 50% cell growth was reported as log of molar concentration for 60 cell lines.; type: functional; conditions: Homo sapiens
SF-539 [1] = assay: Log of molar concentration leading to 50% cell death against CNS cancer SF-539 cell line was reported; type: functional; conditions: Homo sapiens, read-out: Log LC50 (the source's name) (converted)
NCI-H23 [2] = assay: Log of molar concentration leading to 50% cell death against non-small-cell lung cancer NCI-H23 cell line was reported; type: functional; conditions: Homo sapiens, read-out: Log LC50 (the source's name) (converted)
MDA-N [3] = assay: In vitro growth inhibition against breast cancer MDA-N cell line was reported.; type: functional; conditions: Homo sapiens
NCI-H522 = assay: In vitro growth inhibition against non-small-cell lung cancer […] cell line was reported.; type: functional; conditions: Homo sapiens
SNB-19 [4] = assay: In vitro growth inhibition against CNS cancer SNB-19 cell line was reported.; type: functional; conditions: Homo sapiens
UACC-257 [5] = assay: Log of molar concentration leading to 50% cell death against melanoma UACC-257 cell line was reported; type: functional; conditions: Homo sapiens, read-out: Log LC50 (the source's name) (converted)
SK-MEL-2 [6] = assay: In vitro total growth inhibition against melanoma SK-MEL-2 cell lines was reported.; type: functional; conditions: Homo sapiens, read-out: Log TGI (converted)
SF-268 = assay: In vitro total growth inhibition against CNS cancer SF-268 cell lines was reported.; type: functional; conditions: Homo sapiens, read-out: Log TGI (converted)
UO-31 [7] = assay: In vitro growth inhibition against renal cancer UO-31 cell line was reported.; type: functional; conditions: Homo sapiens
SNB-19 [8] = assay: Log of molar concentration leading to 50% cell death against CNS cancer SNB-19 cell line was reported; type: functional; conditions: Homo sapiens, read-out: Log LC50 (the source's name) (converted)
HCT-15 [9] = assay: Log of molar concentration leading to 50% cell death against colon cancer HCT-15 cell line was reported; type: functional; conditions: Homo sapiens, read-out: Log LC50 (the source's name) (converted)
LOX IMVI = assay: In vitro total growth inhibition against melanoma LOX IMVI cell lines was reported.; type: functional; conditions: Homo sapiens, read-out: Log TGI (converted)
NCI-H46 = assay: In vitro growth inhibition against non-small-cell lung cancer […] cell line was reported.; type: functional; conditions: Homo sapiens
KM12 = assay: Log of molar concentration leading to 50% cell death against colon cancer KM12 cell line was reported; type: functional; conditions: Homo sapiens, read-out: Log LC50 (the source's name) (converted)
MDA-N [10] = assay: Log of molar concentration leading to 50% cell death against breast cancer MDA-Ncell line was reported; type: functional; conditions: Homo sapiens, read-out: Log LC50 (the source's name) (converted)
NCI-H23 [11] = assay: In vitro growth inhibition against non-small-cell lung cancer NCI-H23 cell line was reported.; type: functional; conditions: Homo sapiens
SN12C [12] = assay: In vitro total growth inhibition against renal cancer SN12C cell lines was reported.; type: functional; conditions: Homo sapiens, read-out: Log TGI (converted)
NCI-H322M = assay: In vitro total growth inhibition against non-small-cell lung cancer NCI-H322M cell lines was reported.; type: functional; conditions: Homo sapiens, read-out: Log TGI (converted)
BT-549 = assay: Log of molar concentration leading to 50% cell death against breast cancer BT 549 cell line was reported; type: functional; conditions: Homo sapiens, read-out: Log LC50 (the source's name) (converted)
UACC-62 = assay: In vitro total growth inhibition against melanoma UACC-62 cell lines was reported.; type: functional; conditions: Homo sapiens, read-out: Log TGI (converted)
ACHN [13] = assay: In vitro total growth inhibition against renal cancer ACHN cell lines was reported.; type: functional; conditions: Homo sapiens, read-out: Log TGI (converted)
CAKI-1 = assay: Log of molar concentration leading to 50% cell death against renal cancer CAKI-1 cell line was reported; type: functional; conditions: Homo sapiens, read-out: Log LC50 (the source's name) (converted)
UACC-257 [14] = assay: In vitro total growth inhibition against melanoma UACC-257 cell lines was reported.; type: functional; conditions: Homo sapiens, read-out: Log TGI (converted)
PC-3 = assay: In vitro total growth inhibition against prostate cancer PC-3 cell lines was reported.; type: functional; conditions: Homo sapiens, read-out: Log TGI (converted)
T47D [15] = assay: Log of molar concentration leading to 50% cell death against breast cancer […] cell line was reported; type: functional; conditions: Homo sapiens, read-out: Log LC50 (the source's name) (converted)
SNB-75 [16] = assay: In vitro growth inhibition against CNS cancer SNB-75 cell line was reported.; type: functional; conditions: Homo sapiens
ACHN [17] = assay: In vitro growth inhibition against renal cancer ACHN cell line was reported.; type: functional; conditions: Homo sapiens
SF-539 [18] = assay: In vitro total growth inhibition against CNS cancer SF-539 cell lines was reported.; type: functional; conditions: Homo sapiens, read-out: Log TGI (converted)
HOP-92 = assay: In vitro total growth inhibition against non-small-cell lung cancer HOP-92 cell lines was reported.; conditions: Homo sapiens, read-out: Log TGI (converted)
RXF 393 = assay: In vitro growth inhibition against renal cancer RXF 393 cell line was reported.; type: functional; conditions: Homo sapiens
OVCAR-5 = assay: In vitro total growth inhibition against ovarian cancer OVCAR-5 cell lines was reported.; type: functional; conditions: Homo sapiens, read-out: Log TGI (converted)
A549 = assay: In vitro growth inhibition against non-small-cell lung cancer A 549/ATCC cell line was reported.; type: functional; conditions: Homo sapiens
SN12C [19] = assay: Log of molar concentration leading to 50% cell death against renal cancer SN12C cell line was reported; type: functional; conditions: Homo sapiens, read-out: Log LC50 (the source's name) (converted)
SNB-75 [20] = assay: In vitro total growth inhibition against CNS cancer SNB-75 cell lines was reported.; type: functional; conditions: Homo sapiens, read-out: Log TGI (converted)
HCT-15 [21] = assay: In vitro total growth inhibition against colon cancer HCT-15 cell lines was reported.; type: functional; conditions: Homo sapiens, read-out: Log TGI (converted)
UO-31 [22] = assay: Log of molar concentration leading to 50% cell death against renal cancer UO-31 cell line was reported; type: functional; conditions: Homo sapiens, read-out: Log LC50 (the source's name) (converted)
NCI-H226 = assay: Log of molar concentration leading to 50% cell death against non-small-cell lung cancer NCI-H226 cell line was reported; type: functional; conditions: Homo sapiens, read-out: Log LC50 (the source's name) (converted)
A498 = assay: Log of molar concentration leading to 50% cell death against renal cancer A498 cell line was reported; type: functional; conditions: Homo sapiens, read-out: Log LC50 (the source's name) (converted)
MCF7 = assay: In vitro total growth inhibition against breast cancer MCF 7 cell lines was reported.; type: functional; conditions: Homo sapiens, read-out: Log TGI (converted)
NCI/ADR-RES = assay: Log of molar concentration leading to 50% cell death against breast cancer NCI/ADR-RES cell line was reported; type: functional; conditions: Homo sapiens, read-out: Log LC50 (the source's name) (converted)
SK-MEL-2 [23] = assay: Log of molar concentration leading to 50% cell death against melanoma SK-MEL-2 cell line was reported; type: functional; conditions: Homo sapiens, read-out: Log LC50 (the source's name) (converted)
MOLT-4 = assay: Log of molar concentration leading to 50% cell death against leukemia MOLT-4 cell line was reported; type: functional; conditions: Homo sapiens, read-out: Log LC50 (the source's name) (converted)
T47D [24] = assay: In vitro growth inhibition against breast cancer […] cell line was reported.; type: functional; conditions: Homo sapiens

O=C(Nc1cccc2nsnc12)c1cc2c(cc1Cl)Sc1nccn1S2(=O)=O
GI50 (Tumor Cell line): 45.7 µM | CC50 (SF-539 [1]): 15.5 µM | CC50 (NCI-H23 [2]): 55 µM | GI50 (MDA-N [3]): 13.5 µM | GI50 (NCI-H522): 5.37 µM | GI50 (SNB-19 [4]): 12 µM | CC50 (UACC-257 [5]): 6.31 µM | TGI (SK-MEL-2 [6]): 25.7 µM | TGI (SF-268): 16.2 µM | GI50 (UO-31 [7]): 2.09 µM | CC50 (SNB-19 [8]): 50.1 µM | CC50 (HCT-15 [9]): 72.4 µM | TGI (LOX IMVI): 40.7 µM | GI50 (NCI-H46): 2.04 µM | CC50 (KM12): 7.41 µM | CC50 (MDA-N [10]): 56.2 µM | GI50 (NCI-H23 [11]): 11.7 µM | TGI (SN12C [12]): 28.8 µM | TGI (NCI-H322M): 3.24 µM | CC50 (BT-549): 85.1 µM | TGI (UACC-62): 17.8 µM | TGI (ACHN [13]): 36.3 µM | CC50 (CAKI-1): 51.3 µM | TGI (UACC-257 [14]): 3.39 µM | TGI (PC-3): 3.55 µM | CC50 (T47D [15]): 7.76 µM | GI50 (SNB-75 [16]): 3.89 µM | GI50 (ACHN [17]): 12.6 µM | TGI (SF-539 [18]): 4.9 µM | TGI (HOP-92): 25.7 µM | GI50 (RXF 393): 4.68 µM | TGI (OVCAR-5): 83.2 µM | GI50 (A549): 12.6 µM | CC50 (SN12C [19]): 56.2 µM | TGI (SNB-75 [20]): 26.9 µM | TGI (HCT-15 [21]): 21.4 µM | CC50 (UO-31 [22]): 50.1 µM | CC50 (NCI-H226): 58.9 µM | CC50 (A498): 63.1 µM | TGI (MCF7): 3.39 µM | CC50 (NCI/ADR-RES): 83.2 µM | CC50 (SK-MEL-2 [23]): 64.6 µM | CC50 (MOLT-4): 83.2 µM | GI50 (T47D [24]): 1.7 µM
